From publication doi:10.1101/2021.12.22.473926v1 (biorxiv, 2021)

Target: cruzain (Trypanosoma cruzi, UniProt P25779)
Test: fluorimetric Z-FR-AMC cleavage, initial rates
Type: biochemical

cruzain, sequence (P25779 123-337): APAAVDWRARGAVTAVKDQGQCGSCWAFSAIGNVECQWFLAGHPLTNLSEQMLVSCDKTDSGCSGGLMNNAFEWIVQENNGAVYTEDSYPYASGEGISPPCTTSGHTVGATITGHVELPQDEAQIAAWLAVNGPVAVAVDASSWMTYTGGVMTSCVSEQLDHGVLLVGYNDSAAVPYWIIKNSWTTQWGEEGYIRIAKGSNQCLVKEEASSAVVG

SMILES: CC(C)C[C@H](NC(=O)[C@H]1O[C@@H]1C(=O)O)C(=O)NCCCCN=C(N)N [E-64, trans-Epoxysuccinyl-L-leucylamido(4-guanidino)butane, reference compound]
- IC50: 29.7 ± 9.16 nM
